Where “and” joins values, the source holds several entries; their conditions need not be identical. Equal entries are not always repeated. Where two headings read alike, the source gives them in different places.
Experiments:
[1] = molecular target: T1, porcine Aminopeptidase N (APN) (Sus scrofa, UniProt P15145); experiment: in vitro inhibition assay of aminopeptidase N (spectrophotometric, L-leucine-p-nitroanilide substrate); assay type: biochemical; settings: microsomal aminopeptidase from porcine kidney (pAPN), L-leucine-p-nitroanilide 250 μM, PBS pH 7.2, 37° C., 1 hour, UV 405 nm
T1 construct: microsomal aminopeptidase from porcine kidney (pAPN, Sigma Aldrich) (18 units/mg protein); purchased Sigma Aldrich; host or cells: porcine kidney (tissue-derived enzyme preparation)
T1 sequence (P15145 1-963): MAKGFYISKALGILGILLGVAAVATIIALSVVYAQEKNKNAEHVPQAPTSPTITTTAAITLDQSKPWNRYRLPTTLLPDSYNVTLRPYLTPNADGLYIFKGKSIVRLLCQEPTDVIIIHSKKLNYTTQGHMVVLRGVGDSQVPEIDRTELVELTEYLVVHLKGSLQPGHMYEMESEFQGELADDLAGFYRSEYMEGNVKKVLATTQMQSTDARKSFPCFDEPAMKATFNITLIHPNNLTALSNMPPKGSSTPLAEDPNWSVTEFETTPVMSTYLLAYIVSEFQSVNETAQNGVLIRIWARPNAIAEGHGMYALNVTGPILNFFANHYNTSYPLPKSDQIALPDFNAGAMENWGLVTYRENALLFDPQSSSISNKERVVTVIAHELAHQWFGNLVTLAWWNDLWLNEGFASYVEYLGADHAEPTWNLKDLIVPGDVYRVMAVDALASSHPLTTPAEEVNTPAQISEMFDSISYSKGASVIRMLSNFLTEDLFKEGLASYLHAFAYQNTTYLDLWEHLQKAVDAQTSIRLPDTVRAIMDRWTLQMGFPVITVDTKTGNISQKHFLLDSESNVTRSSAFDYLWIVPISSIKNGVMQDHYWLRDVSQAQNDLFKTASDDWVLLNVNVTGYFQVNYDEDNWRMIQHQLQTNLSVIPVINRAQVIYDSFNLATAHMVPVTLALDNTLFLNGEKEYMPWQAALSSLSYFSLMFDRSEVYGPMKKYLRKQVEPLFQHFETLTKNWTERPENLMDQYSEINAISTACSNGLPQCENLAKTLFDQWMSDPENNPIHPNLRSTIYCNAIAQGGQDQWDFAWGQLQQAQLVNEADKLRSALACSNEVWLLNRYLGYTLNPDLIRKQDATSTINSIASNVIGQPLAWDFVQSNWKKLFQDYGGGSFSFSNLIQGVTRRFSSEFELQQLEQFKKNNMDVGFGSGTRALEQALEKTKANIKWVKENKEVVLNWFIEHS
Procedure: IC50 values were calculated by following the formation of p-nitroaniline. Formation of p-nitroaniline was monitored by measurement of the UV absorption at 405 nm on a Hidex Sense plate reader. The assay was performed in a 96-well plate in PBS buffer (pH 7.2, 1.47 mM KH2PO4, 7.8 mM Na2HPO4, 137 mM NaCl, 2.7 mM KCl, 1.8 mM CaCl2, 1.8 mM MgCl2) at 37° C. with a total volume of 100 μL. […] The peptides were incubated with the enzyme (1.0 μg/mL) for 5 min. before a solution of L-leucine-p-nitroanilide was added with a final concentration of 250 μM. The plate was incubated at 37° C. for 1 hour before the p-nitroaniline was detected. […] For the calculation of the IC50 values log of the concentration was plotted against the UV absorption in GraphPad Prism 5 using nonlinear regression (variable slope (four parameters) with interpolation) for analysis.

[2] = amide bond, DMF, 25.0 °C
[3] = 25.0 °C
[4] = 25.0 °C; remark: listed apart in the source
[5] = amide bond, 12-membered ring, DEPBT/DIPEA, DMF, 1.0 mM

N=C(N)NCCC[C@@H]1NC2(CNC(=O)[C@H](CC(N)=O)NC(=O)[C@@H](N)CSSC[C@@H](C(=O)O)NC1=O)COC2 [Compound 12, Cyclo(H-CVs-Asn-GOx-Arg-CVs-OH)]
IC50 [1]: 175 µM

CC(C)C[C@@H]1NC(=O)[C@H](Cc2ccc(O)cc2)NC(=O)[C@H](C)NC2(CNC(=O)[C@H](C)NC1=O)COC2 [Cyclo(Ala-GOx-Ala-Tyr-Leu)]
ring closure, yield of all isomers ([2]; from CC(C)C[C@H](NC(=O)[C@H](Cc1ccc(O)cc1)NC(=O)[C@H](C)NC1(CNC(=O)[C@H](C)N)COC1)C(=O)O, DEPBT/DIPEA, 1.0 mM, 24.0 h): 54%

CC(C)C[C@@H]1NC(=O)[C@H](Cc2ccc(O)cc2)NC(=O)[C@H](C)NC(=O)CNC(=O)[C@H](C)NC1=O [Cyclo(Ala-Gly-Ala-Tyr-Leu)]
ring closure, yield of all isomers ([2]; from CC(C)C[C@H](NC(=O)[C@H](Cc1ccc(O)cc1)NC(=O)[C@H](C)NC(=O)CNC(=O)[C@H](C)N)C(=O)O, DEPBT/DIPEA, 1.0 mM, 24.0 h): 42%

CC(C)C[C@@H]1NC(=O)[C@H](Cc2cn(C(=O)OC(C)(C)C)c3ccccc23)NC(=O)CNC2(CNC1=O)COC2 [Cyclo(Leu-GOx-Gly-Trp(Boc))]
ring closure, yield of all isomers ([2]; from CC(C)C[C@H](N)C(=O)NCC1(NCC(=O)N[C@@H](Cc2cn(C(=O)OC(C)(C)C)c3ccccc23)C(=O)O)COC1, DEPBT, 1.0 mM, 64.0 h, 6 steps): 39%

CC(C)C[C@@H]1NC(=O)[C@H](Cc2c[nH]c3ccccc23)NC(=O)CNC2(COC2)[C@H](C)NC1=O [Cyclo(Trp-Leu-AOx-Gly)]
ring closure, yield of all isomers ([2]; from CC(C)C[C@H](NC(=O)[C@@H](N)Cc1c[nH]c2ccccc12)C(=O)N[C@@H](C)C1(NCC(=O)O)COC1, DEPBT, 1.0 mM, 48.0 h): 50%

CC(C)C[C@@H]1NC(=O)[C@H](Cc2c[nH]c3ccccc23)NC(=O)CNC2(CNC1=O)COC2 [Cyclo(Trp-Leu-GOx-Gly)]
ring closure, yield of all isomers ([2]; from CC(C)C[C@H](NC(=O)[C@@H](N)Cc1c[nH]c2ccccc12)C(=O)NCC1(NCC(=O)O)COC1, DEPBT/DIPEA, 1.0 mM, 48.0 h): 65%

CC(C)C[C@@H]1NC(=O)[C@H](Cc2c[nH]c3ccccc23)NC(=O)CNC(=O)CNC1=O [Cyclo(Trp-Leu-Gly-Gly)]
ring closure, yield of all isomers ([2]; from CC(C)C[C@H](NC(=O)[C@@H](N)Cc1c[nH]c2ccccc12)C(=O)NCC(=O)NCC(=O)O, PyBOP/DIPEA, 1.0 mM, 48.0 h): 15%

CC(C)C[C@@H]1NC(=O)[C@H](Cc2ccccc2)NC(=O)[C@H]([C@@H](C)OC(C)(C)C)NC2(CNC(=O)[C@H](C(C)C)NC(=O)[C@H](Cc3ccc(OC(C)(C)C)cc3)NC1=O)CN(C(=O)OC(C)(C)C)C2 [Cyclo-(Leu-Tyr(^tBu)-Val-GAz(Boc)-Thr(^tBu)-Phe)]
ring closure, yield of all isomers ([2]; from CC(C)C[C@H](N)C(=O)N[C@@H](Cc1ccc(OC(C)(C)C)cc1)C(=O)N[C@H](C(=O)NCC1(N[C@H](C(=O)N[C@@H](Cc2ccccc2)C(=O)O)[C@@H](C)OC(C)(C)C)CN(C(=O)OC(C)(C)C)C1)C(C)C, DEPBT, 5.0 mM, 48.0 h): 57%

C[C@@H](OC(C)(C)C)[C@@H]1NC2(CNC(=O)[C@H](CCC(=O)OC(C)(C)C)NC(=O)[C@H](Cc3ccccc3)NC(=O)CNC1=O)CN(C(=O)OC(C)(C)C)C2 [Cyclo-(Phe-Glu(^tBu)-GAz(Boc)-Thr(^tBu)-Gly)]
ring closure, yield of all isomers ([2]; from C[C@@H](OC(C)(C)C)[C@H](NC1(CNC(=O)[C@H](CCC(=O)OC(C)(C)C)NC(=O)[C@@H](N)Cc2ccccc2)CN(C(=O)OC(C)(C)C)C1)C(=O)NCC(=O)O, DEPBT, 5.0 mM, 68.0 h): 73%

Cyclo(Ala-GOx-Ala-Tyr-Leu)
ring closure, isolated yield ([3]; amide bond, 15-membered ring, DEPBT/DIEA, DMF, 1.0 mM): 54%

Cyclo(Ala-Gly-Ala-Tyr-Leu)
ring closure, isolated yield ([3]; amide bond, 15-membered ring, DEPBT/DIPEA, DMF, 1.0 mM): 42%

Cyclo(Ala-Trp-GOx-Gly-Leu)
ring closure, yield after HPLC ([4]; amide bond, 15-membered ring, DEPBT/DIPEA, DMF, 1.0 mM, with chain assembly): 13%

Cyclo(Boc-Cys-GOx-Cys-OtBu)
ring closure, isolated yield ([3]; disulfide bond, 11-membered ring, I2, MeOH, 5.0 mM): 64%

Cyclo(H-CVs-Asn-GOx-Arg-CVs-OH)
ring closure, yield after HPLC ([4]; disulfide bond, 17-membered ring, I2, MeOH, 10.0 mM, 2 steps): 32%

Cyclo(Leu-GOx-Gly-Trp(Boc))
ring closure, isolated yield ([3]; amide bond, 12-membered ring, DEPBT/DIPEA, DMF, 1.0 mM, with chain assembly): 39%

Cyclo(Met-Ala-Trp-GOx-Gly-Leu)
ring closure, yield after HPLC ([4]; amide bond, 18-membered ring, DEPBT/DIPEA, DMF, 1.0 mM, with chain assembly): 7%

Cyclo(Ser-Met-Ala-Trp-GOx-Gly-Leu)
ring closure, yield after HPLC ([4]; amide bond, 21-membered ring, DEPBT/DIPEA, DMF, 1.0 mM, with chain assembly): 13%

Cyclo(Trp-Leu-AOx-Gly)
ring closure, isolated yield [3, 5]: 49% and 50%

Cyclo(Trp-Leu-GOx-Gly)
ring closure, isolated yield ([3]; amide bond, 12-membered ring, DEPBT/DIEA, DMF, 1.0 mM): 65%

Cyclo(Trp-Leu-Gly-Gly)
ring closure, isolated yield ([3]; amide bond, 12-membered ring, PyBOP/DIEA, DMF, 1.0 mM): 15%

Cyclo-((D)Pro-Leu-GAz(Boc)-Gly)
ring closure, isolated yield [3, 5]: 79%

Cyclo-(Leu-Tyr(^tBu)-Val-GAz(Boc)-Thr(^tBu)-Phe)
ring closure, isolated yield ([3]; amide bond, 18-membered ring, DEPBT/DIPEA, DMF, 5.0 mM): 57%

Cyclo-(Phe-Glu(^tBu)-GAz(Boc)-Thr(^tBu)-Gly)
ring closure, isolated yield ([3]; amide bond, 15-membered ring, DEPBT/DIPEA, DMF, 5.0 mM): 73%
